Results: EP0736009B1, “N-OXIDES OF 4-ARYLPIPERAZINES AND 4-ARYLPIPERIDINES AS ANTIPSYCHOTIC DRUGS” (ORTHO PHARMACEUTICAL CORPORATION, priority 1993, dated 1995)

How the values were obtained:
Rat = assay: Block of Conditioned Avoidance Responding (Rat) test (CAR); type: in vivo, Male, Fischer 344 rats; settings: for Loss of escape: % failures to escape (group mean), measure of general sedative potential, at CAR 15 mg/kg ip; for % CAR at 15 mg/kg: mean % change in CAR vs vehicle pretreatment day, 15 mg/kg ip, negative number = blockade of CAR
Text: The antipsychotic activity of the compounds of the invention may be determined by the Block of Conditioned Avoidance Responding (Rat) test (CAR), references being Cook, L. and E. Weidley in Ann. N.Y. Acad. Sci., 1957, 6, 740-752, and Davidson, A.B. and E. Weidley in Life Sci., 1976, 18, 1279-1284. A reading of -20% in the CAR test was generally taken to represent a minimum value for a compound to be designated as active at a given dose. In addition, the affinity of the compounds for several receptors found in the central nervous system was evaluated; the affinity for the D-2 (dopamine-2) receptors is also listed in Table 1. As modulation of this receptor is generally recognized to be beneficial in the treatment of schizophrenia (G. P. Reynolds Trends Pharmacol. Sci. 1992, 13, 116), affinity for this receptor indicates potential utility for the compounds. […] Block of Conditioned Avoidance Responding (Rat) Apparatus: Rat operant chambers, housed within sound attenuated booths, both from […] Instruments Ltd., were used in this test. The test chamber (8" H x […] D) is constructed of aluminum and plexiglass with floor grid bars of stainless-steel (1/8" O.D.) spaced 9/16" apart. A stainless-steel operation level 1-1/2" wide projects 3/4" into the chamber and is positioned 2-2/8" above the grid floor. The shock stimulus is delivered via the grid floor by a Coulbourn Instruments solid state module. The parameters of the test and the collection of data are controlled automatically. Training: Male, Fischer 344 rats obtained from Charles River (Kingston, NY) weighing more than 200 g, are individually housed with chow and water provided ad libitum. The rats are trained for two weeks to approach criterion levels in the avoidance test (90% avoidance rate). One-hour training sessions are run at about the same time each day for four or five days a week. The training session consists of 120 trials, with the conditioned stimuli presented every 30 sec. A trial begins with presentation of the conditioned stimuli (a light and a tone). If the rat responds by depressing the operant lever during the 15-second presentation of the conditioned stimuli, the trial is terminated and the animal is credited with a CAR. Failure to respond during the conditioned stimuli causes the presentation of the unconditioned stimulus (UCS), a 0.7 mA shock which is accompanied by a light and tone for five seconds. If the rat depressed the lever within the ten-second period, the shock and trial are terminated and an escape response recorded. If the rat fails to depress the lever during the UCS (shock), the trial is terminated after ten seconds of shock and the absence of a response is scored as a failure to escape. […] presses have no effect. If a rat performs at the 90% CAR level for two weeks, it is then run twice a week on the test schedule (see below) until baseline performance stabilized. Before any drug is administered, two weeks of CAR at a rate of 90% or better is required. The percent change in CAR on the drug treatment day compared to vehicle pretreatment day is the key measure. The percent change (% change) in CAR is determined using the following formula: % change CAR = ((% CAR for Day 2/% CAR for Day 1) x 100)-100 [formula] A negative number indicates a blockade of CAR, whereas a positive number would indicate increased CAR. The test results are reported as the mean % change for the group of rats. Failure to escape, a measure of the general sedative potential of the compound, was calculated for each animal as follows: % Failures = # of Failures to Escape/# of trials [formula] The % failures, viz., loss of escape, is also reported as a group mean. Failures to escape are monitored closely and a session is terminated if ten failures occurred. ED50 values and 95% confidence limits are calculated using linear regression analysis. […]

[1] = biological target: T1, D-2 (dopamine-2) receptors (Rattus norvegicus, UniProt P61169); assay: Dopamine D2 receptor binding assay (3H-spiperone, striatal P2 fraction); design: species or system male, Wistar rats; settings: rat striatum P2 fraction; 3H-spiperone 0.05 nM; 45 min at 37°C
T1 construct: The D2 assay employed a P2 fraction from the striatum; from tissue; host or cells: rat striatum, P2 fraction (synaptosomal membranes)
T1 sequence (P61169 whole entry): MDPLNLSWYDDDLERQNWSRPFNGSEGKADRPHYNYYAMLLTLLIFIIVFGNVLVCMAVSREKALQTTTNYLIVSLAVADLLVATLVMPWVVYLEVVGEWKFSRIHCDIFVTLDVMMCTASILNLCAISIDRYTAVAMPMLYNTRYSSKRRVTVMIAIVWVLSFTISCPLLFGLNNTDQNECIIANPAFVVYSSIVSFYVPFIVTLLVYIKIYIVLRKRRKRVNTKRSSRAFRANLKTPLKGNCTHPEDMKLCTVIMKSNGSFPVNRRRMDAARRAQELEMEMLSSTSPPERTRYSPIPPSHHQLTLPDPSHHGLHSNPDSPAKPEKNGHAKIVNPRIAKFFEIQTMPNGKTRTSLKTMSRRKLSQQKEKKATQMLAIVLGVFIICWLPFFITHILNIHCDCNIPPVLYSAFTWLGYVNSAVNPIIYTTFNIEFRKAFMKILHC
Text: The antipsychotic activity of the compounds of the invention may be determined by the Block of Conditioned Avoidance Responding (Rat) test (CAR), references being Cook, L. and E. Weidley in Ann. N.Y. Acad. Sci., 1957, 6, 740-752, and Davidson, A.B. and E. Weidley in Life Sci., 1976, 18, 1279-1284. A reading of -20% in the CAR test was generally taken to represent a minimum value for a compound to be designated as active at a given dose. In addition, the affinity of the compounds for several receptors found in the central nervous system was evaluated; the affinity for the D-2 (dopamine-2) receptors is also listed in Table 1. As modulation of this receptor is generally recognized to be beneficial in the treatment of schizophrenia (G. P. Reynolds Trends Pharmacol. Sci. 1992, 13, 116), affinity for this receptor indicates potential utility for the compounds. […].
The dopamine D2 binding activity of compounds was determined using a P2 fraction (synaptosomal membranes) prepared from male, Wistar rats. The D2 assay employed a P2 fraction from the striatum, the ligand ^3H-spiperone at a concentration of 0.05 nM, and 1 mM haloperidol as a blank determinant. […].
The data from this assay were analyzed by calculating the percent inhibition of the binding of the tritiated ligands by given concentrations of the test compound. KI values, where given, were obtained from the logit analysis of concentration-inhibition curves.

Structure (SMILES)	Loss of escape (Rat) [%]	% CAR at 15 mg/kg (Rat) [%]	Ki [1] [nM]
CC(C)Oc1ccccc1[N+]1([O-])CCN(Cc2cccc(C(=O)N3CCCCC3)c2)CC1 [Compound 1, 1-[3-[[4-[2-(1-Methylethoxy)ehenyl]-4-oxide-1-piperazinyl]methyl]benzoyl]piperidine]	44.8	-91.7	140
CC(C)Oc1ccccc1N1CC[N+]([O-])(Cc2cccc(C(=O)N3CCCCC3)c2)CC1 [Compound 2, 1-[3-[[4-[2-(1-Methylethoxy)phenyl]-1-piperazinyl-1-oxide]methyl]benzoyl]piperidine]	31.5	-87.6	355
CC(C)Oc1ccccc1C1CC[N+]([O-])(Cc2cccc(C(=O)N3[C@H](C)CCC[C@@H]3C)c2)CC1 (relative stereo) [Compound 3, 1-[3-[[4-[2-(1-Methylethoxy)phenyl]-1-piperidinyl-1-oxide]methyl]benzoyl]-cis-2.6-dimethylpiperidine]	0.4	-37.7	371
